Results taken from ChEMBL document CHEMBL1157136, “Design and synthesis of cyclic disulfide-bonded antibacterial peptides on the basis of the alpha helical domain of Tenecin 1, an insect defensin” (Bioorg Med Chem, 2008).
≈ marks a conversion by molar mass, not a printed value. Where a SMILES comes first, the peptide text is derived from it. Bridges are numbered along the chain shown (N, C = ends).

Key:
Escherichia coli [1] = experiment: Antimicrobial activity against Escherichia coli after 24 hrs by microdilution technique in high salt condition; type: functional
Pseudomonas aeruginosa [2] = experiment: Antimicrobial activity against Pseudomonas aeruginosa after 24 hrs by microdilution technique in high salt condition; type: functional
Pseudomonas aeruginosa [3] = experiment: Antimicrobial activity against Pseudomonas aeruginosa after 24 hrs by microdilution technique in absence of NaCl; type: functional
Escherichia coli [4] = experiment: Antimicrobial activity against Escherichia coli after 24 hrs by microdilution technique in absence of NaCl; type: functional
Candida albicans [5] = experiment: Antimicrobial activity against Candida albicans after 24 hrs by microdilution technique in high salt condition; type: functional
Erythrocyte = experiment: Hemolytic activity in human red blood cells after 1 hrs; type: functional
Micrococcus luteus [6] = experiment: Antimicrobial activity against Micrococcus luteus after 24 hrs by microdilution technique in high salt condition; type: functional
Micrococcus luteus [7] = experiment: Antimicrobial activity against Micrococcus luteus after 24 hrs by microdilution technique in absence of NaCl; type: functional
Staphylococcus aureus [8] = experiment: Antimicrobial activity against Staphylococcus aureus after 24 hrs by microdilution technique in high salt condition; type: functional
Staphylococcus aureus [9] = experiment: Antimicrobial activity against Staphylococcus aureus after 24 hrs by microdilution technique in absence of NaCl; type: functional
[10] = Effect on leakage from large unilamellar vesicles containing phosphatidylglycerol/phosphatidyl choline assessed as release of entrapped dye at 50 uM; type: physicochemical
Candida albicans [11] = experiment: Antimicrobial activity against Candida albicans after 24 hrs by microdilution technique in absence of NaCl; type: functional

MIC (Escherichia coli [1]) [µg/mL] | MIC (Pseudomonas aeruginosa [2]) [µg/mL] | MIC (Pseudomonas aeruginosa [3]) [µg/mL] | MIC (Escherichia coli [4]) [µg/mL] | MIC (Candida albicans [5]) [µg/mL] | MIC (Micrococcus luteus [6]) [µg/mL] | MIC (Micrococcus luteus [7]) [µg/mL] | MIC (Staphylococcus aureus [8]) [µg/mL] | MIC (Staphylococcus aureus [9]) [µg/mL] | Activity [10] [%] | MIC (Candida albicans [11]) [µg/mL] | SMILES | HC50 (Erythrocyte) [µg/mL]
> 200 | > 200 | > 200 | > 200 | > 200 | 100 | 100 | 100 | 100 | 20 | – | CC(C)C[C@H](NC(=O)[C@@H]1CSSC[C@H](NC(=O)[C@H](C)NC(=O)[C@H](C)NC(=O)[C@@H](N)CCCCN)C(=O)N[C@@H](C)C(=O)N[C@@H](C)C(=O)N[C@@H](Cc2cnc[nH]2)C(=O)N1)C(=O)N[C@@H](Cc1c[nH]c2ccccc12)C(=O)N[C@@H](CCCNC(=N)N)C(N)=O (H-KAACAAHCLWR-NH2; disulfide 4-8) | >200
> 200 | > 200 | > 200 | > 200 | > 200 | > 200 | > 200 | > 200 | > 200 | – | – | CC(C)C[C@H](NC(=O)[C@@H]1CSSC[C@H](NC(=O)[C@H](C)NC(=O)[C@H](C)NC(=O)[C@@H](N)CC(=O)O)C(=O)N[C@@H](C)C(=O)N[C@@H](C)C(=O)N[C@@H](Cc2cnc[nH]2)C(=O)N1)C(=O)N[C@@H](Cc1c[nH]c2ccccc12)C(=O)N[C@@H](CCCNC(=N)N)C(N)=O (H-DAACAAHCLWR-NH2; disulfide 4-8) | >200
– | – | – | – | – | – | – | – | – | 70 | – | CC(C)C[C@H](NC(=O)[C@H](CS)NC(=O)[C@H](Cc1cnc[nH]1)NC(=O)[C@H](C)NC(=O)[C@H](C)NC(=O)[C@H](CS)NC(=O)[C@H](C)NC(=O)[C@H](C)NC(=O)[C@@H](N)CCCCN)C(=O)N[C@@H](Cc1c[nH]c2ccccc12)C(=O)N[C@@H](CCCNC(=N)N)C(N)=O (H-KAACAAHCLWR-NH2) [listing 1 of 2 here] | –
> 200 | > 200 | > 200 | 200 (≈ 166 µM) | > 200 | > 200 | 200 (≈ 166 µM) | > 200 | 200 (≈ 166 µM) | – | – | CC(C)C[C@H](NC(=O)[C@H](CS)NC(=O)[C@H](CCCCN)NC(=O)[C@H](C)NC(=O)[C@H](C)NC(=O)[C@H](CS)NC(=O)[C@H](C)NC(=O)[C@H](C)NC(=O)[C@@H](N)CC(=O)O)C(=O)N[C@@H](Cc1c[nH]c2ccccc12)C(=O)N[C@@H](CCCNC(=N)N)C(N)=O (H-DAACAAKCLWR-NH2) | >200
200 | > 200 | > 200 | 50 (≈ 41.1 µM) | > 200 | 200 | 50 (≈ 41.1 µM) | > 200 | 50 (≈ 41.1 µM) | – | – | CC(C)C[C@H](NC(=O)[C@@H]1CSSC[C@H](NC(=O)[C@H](C)NC(=O)[C@H](C)NC(=O)[C@@H](N)CCCCN)C(=O)N[C@@H](C)C(=O)N[C@@H](C)C(=O)N[C@@H](CCCCN)C(=O)N1)C(=O)N[C@@H](Cc1c[nH]c2ccccc12)C(=O)N[C@@H](CCCNC(=N)N)C(N)=O (H-KAACAAKCLWR-NH2; disulfide 4-8) | >200
> 200 | > 200 | 100 (≈ 82 µM) | 50 (≈ 41 µM) | > 200 | 200 | 25 (≈ 20.5 µM) | 100 | 50 (≈ 41 µM) | – | – | CC(C)C[C@H](NC(=O)[C@H](CS)NC(=O)[C@H](CCCCN)NC(=O)[C@H](C)NC(=O)[C@H](C)NC(=O)[C@H](CS)NC(=O)[C@H](C)NC(=O)[C@H](C)NC(=O)[C@@H](N)CCCCN)C(=O)N[C@@H](Cc1c[nH]c2ccccc12)C(=O)N[C@@H](CCCNC(=N)N)C(N)=O (H-KAACAAKCLWR-NH2) | >200
> 200 | > 200 | > 200 | > 200 | > 200 | > 200 | > 200 | > 200 | > 200 | – | > 200 | CC(C)C[C@H](NC(=O)[C@H](CS)NC(=O)[C@H](Cc1cnc[nH]1)NC(=O)[C@H](C)NC(=O)[C@H](C)NC(=O)[C@H](CS)NC(=O)[C@H](C)NC(=O)[C@H](C)NC(=O)[C@@H](N)CC(=O)O)C(=O)N[C@@H](Cc1c[nH]c2ccccc12)C(=O)N[C@@H](CCCNC(=N)N)C(N)=O (H-DAACAAHCLWR-NH2) | >200
> 200 | > 200 | 100 | 50 | > 200 | > 200 | 25 | > 200 | 50 | – | – | CC(C)C[C@H](NC(=O)[C@H](CS)NC(=O)[C@H](Cc1cnc[nH]1)NC(=O)[C@H](C)NC(=O)[C@H](C)NC(=O)[C@H](CS)NC(=O)[C@H](C)NC(=O)[C@H](C)NC(=O)[C@@H](N)CCCCN)C(=O)N[C@@H](Cc1c[nH]c2ccccc12)C(=O)N[C@@H](CCCNC(=N)N)C(N)=O (H-KAACAAHCLWR-NH2) [listing 2 of 2 here] | >200
> 200 | > 200 | > 200 | > 200 | > 200 | > 200 | > 200 | > 200 | > 200 | – | – | CC(C)C[C@H](NC(=O)[C@@H]1CSSC[C@H](NC(=O)[C@H](C)NC(=O)[C@H](C)NC(=O)[C@@H](N)CC(=O)O)C(=O)N[C@@H](C)C(=O)N[C@@H](C)C(=O)N[C@@H](CCCCN)C(=O)N1)C(=O)N[C@@H](Cc1c[nH]c2ccccc12)C(=O)N[C@@H](CCCNC(=N)N)C(N)=O (H-DAACAAKCLWR-NH2; disulfide 4-8) | >200
